Results as given in patent US20110060017A1, “NOVEL 1,2,3-TRIAZOLE DERIVATIVES USEFUL AS MODULATORS OF NICOTINIC ACETYLCHOLINE RECEPTORS” (Neurosearch A/S, priority 2008, published 2011).
pEC50: −log10 of the molar value.

How the values were obtained:
[1] = target: T1, wild-type nAChR α7 receptors (Homo sapiens, UniProt P36544); assay: Positive modulation of acetylcholine-induced nAChR α7 currents in Xenopus laevis oocytes (two-electrode voltage clamp); format: cell-based
T1 construct: expressed in transfected cells; host or cells: Xenopus laevis oocytes
T1 sequence (P36544 23-502): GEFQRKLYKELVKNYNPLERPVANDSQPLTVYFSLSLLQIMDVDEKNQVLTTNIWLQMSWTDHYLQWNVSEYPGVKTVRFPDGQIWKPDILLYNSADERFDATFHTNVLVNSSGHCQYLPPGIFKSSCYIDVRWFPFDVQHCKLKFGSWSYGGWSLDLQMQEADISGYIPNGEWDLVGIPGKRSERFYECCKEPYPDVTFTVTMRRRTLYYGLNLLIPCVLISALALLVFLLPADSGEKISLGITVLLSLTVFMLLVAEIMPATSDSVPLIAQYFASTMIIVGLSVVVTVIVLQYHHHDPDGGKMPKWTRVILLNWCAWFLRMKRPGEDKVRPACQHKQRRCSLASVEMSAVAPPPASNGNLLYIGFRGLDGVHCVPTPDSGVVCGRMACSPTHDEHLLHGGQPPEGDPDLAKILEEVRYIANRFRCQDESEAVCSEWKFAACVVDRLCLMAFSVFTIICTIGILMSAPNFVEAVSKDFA
Method: In this example the positive modulation of wild-type nAChR α7 receptors by Compound 4 (i.e. 4-[5-Amino-4-(2,4-dichloro-phenyl)-[1,2,3]triazol-1-ylmethyl]phenol; FIGS. 1A and 1B) was determined using nAChR α7 receptors heterologously expressed in Xenopus laevis oocytes.
The electrical current through the nAChR α7 channel was measured using conventional two-electrode voltage clamp and nAChR α7 currents were activated by applying pulses of agonist-containing solution onto the nAChR α7 expressing oocyte.
In brief, the oocytes were placed in a recording chambers and continuously super-fused with an Oocyte Ringer (OR) solution containing 90 mM NaCl, 2.5 mM KCl, 2.5 mM CaCl2, 1 mM MgCl2 and 5 mM HEPES (pH adjusted to 7.4). The oocytes were clamped at −60 mV and currents were induced by applying 20 s pulses of 100 μM acetylcholine dissolved in OR. The intervals between the acetylcholine applications were 5 minutes, during which the oocytes were washed with OR. The first three applications were control applications to insure a constant response level of 100 μM acetylcholine.
The positive modulation in the presence of Compound 4 was calculated as (test-control)/control*100% and the concentration response curve for this positive modulation was fitted to the sigmoidal logistic equation: I=Imax/(1+(EC50/[compound])^n), where Imax represents the maximal modulation of the control response, EC50 is the concentration causing a half maximal response, and n is the slope coefficient.

melting point | Imax, maximal modulation of the acetylcholine response ([1]; 100 μM acetylcholine, (test-control)/control*100%, Xenopus laevis oocytes, 0.01-31.6 μM compound) | pEC50 ([1]; 100 μM acetylcholine, nAChR α7 expressed in Xenopus laevis oocytes, clamped at −60 mV, 0.01-31.6 μM compound, read-out: EC50 for positive modulation of acetylcholine responses) | effect on acetylcholine-induced current amplitude ([1]; 0.01-31.6 μM compound applied 30 s before and during 100 μM acetylcholine) | Structure (SMILES)
204 to 205.6 °C |  |  |  | Nc1c(-c2ccc(Cl)cc2Cl)nnn1Cc1ccc(S(N)(=O)=O)cc1 [Compound 6, 4-[5-Amino-4-(2,4-dichloro-phenyl)-[1,2,3]-triazol-1-ylmethyl]-benzenesulfonamide]
153.2 to 154.4 °C |  |  |  | COc1ccc(Cn2nnc(-c3ccc(C(F)(F)F)cc3F)c2N)cc1 [Compound 7, 5-(2-Fluoro-4-trifluoromethyl-phenyl)-3-(4-methoxy-benzyl)-3H-[1,2,3]-triazol-4-ylamine]
180.1 to 181.3 °C |  |  |  | Nc1c(-c2ccc(C(F)(F)F)cc2F)nnn1Cc1ccc(S(N)(=O)=O)cc1 [Compound 5, 4-[5-Amino-4-(2-fluoro-4-trifluoromethyl-phenyl)-[1,2,3]-triazol-1-ylmethyl]-benzenesulfonamide]
168.2 to 169.5 °C |  |  |  | Nc1c(-c2ccc(C(F)(F)F)cc2F)nnn1Cc1ccc(O)cc1 [Compound 8, 4-[5-Amino-4-(2-fluoro-4-trifluoromethyl-phenyl)-[1,2,3]-triazol-1-ylmethyl]-phenol]

Second part, the compound before the results:

Structure (SMILES) | melting point | Imax, maximal modulation of the acetylcholine response ([1]; 100 μM acetylcholine, (test-control)/control*100%, Xenopus laevis oocytes, 0.01-31.6 μM compound) | pEC50 ([1]; 100 μM acetylcholine, nAChR α7 expressed in Xenopus laevis oocytes, clamped at −60 mV, 0.01-31.6 μM compound, read-out: EC50 for positive modulation of acetylcholine responses) | effect on acetylcholine-induced current amplitude ([1]; 0.01-31.6 μM compound applied 30 s before and during 100 μM acetylcholine)
COc1ccc(-c2nnn(Cc3ccc(Cl)cc3Cl)c2N)cc1 [Compound 2, 3-(2,4-Dichloro-benzyl)-5-(4-methoxy-phenyl)-3H-[1,2,3]-triazol-4-ylamine] | 156.5 to 159 °C |  |  | 
Nc1c(-c2ccc(Cl)cc2Cl)nnn1Cc1ccc(O)cc1 [Compound 4, 4-[5-Amino-4-(2,4-dichloro-phenyl)-[1,2,3]triazol-1-ylmethyl]-phenol] | 172.5 to 174.1 °C | 277% | 5.96 | robust increase
COc1ccc(Cn2nnc(-c3ccc(Cl)cc3Cl)c2N)cc1 [Compound 1, 5-(2,4-Dichloro-phenyl)-3-(4-methoxy-benzyl)-3H-[1,2,3]triazol-4-ylamine] | 134.4 to 136.8 °C |  |  | 
